From US8394832B2, “Methods and compositions using immunomodulatory compounds for the treatment of immunodeficiency disorders” (Celgene Corporation, priority 2004, dated 2013)

Columns and labels:
Type in all cases: cell-based, human
STAT6 = test: Western blotting of phospho-STAT6 in IL-4 stimulated CD-19 B cells; conditions: B cells pretreated 30 minutes, then 100 ng/ml IL-4 for 30 minutes (FIG. 11D)
Experimental: CD-19 B cells (2×10^6/ml) were pretreated with 1,3-dioxo-(2,6-dioxopiperidin-3-yl)-4-aminoisoindoline at 10 μM and 1 μM for 30 minutes. IL-4 (100 ng/ml) was added to cell suspension for 30 minutes, and the cell pellet was washed once by PBS and lysed with 50 μl of the sample buffer. Cell lysates were heated at 100° C. for 5 minutes, and 20 μl of cell lysates were loaded to 4-20% Tris-glycine SDS-PAGE (Invitrogen). The transferred membrane was blotted with 1: 1000 anti-phopho STAT6 antibody (Cell signaling) for overnight at 4° C. prior to secondary HRP conjugated anti rabbit antibody. The signal of the membrane was developed by ECL kit, following the manufacturer's instructions.
Because activation of STAT6 is important in IL-4 induced IgE and IgG1 class switching, whether immunomodulatory compounds could inhibit phosphorylation of STAT6 was investigated. B cells were pretreated with 1,3-dioxo-(2,6-dioxopiperidin-3-yl)-4-aminoisoindoline for 30 minutes, then stimulated with 100 ng/ml of IL-4 for 30 minutes. The activation of STAT6 was assessed by anti-phospho-STAT6 (Tyr 641).

B cells = test: Morphological changes of activated B cells (phase contrast microscopy); conditions: treated with compound and anti-IgM (FIG. 7B)
Experimental: (§1) Human buffy coat (50 ml) was diluted with 50 ml sterile PBS (Ca^++, Mg^++ free), and mixed gently. A 25 ml aliquot of diluted buffy coat was transferred to each 50 ml centrifuge tube, and Histopaque-1077 (14 ml, #1077-1, Sigma) was gently layered into the bottom of the tube. The sample was centrifuged at 2,000 rpm for 30 min at room temperature. The interface containing mononuclear cells was transferred into 50 ml centrifuge tube, and washed once with PBS (1200 rpm, 5 min). The supernatant was discarded. Cell pellet was resuspended in Miltenyi buffer. Anti-CD19^+ microbeads were added to the suspension (10^7 cells in 80 μl of buffer, 20 μl antibody beads for 10^7 cells) and incubated for 15 min at 4° C. Cell pellet was washed once and resuspended in 1 ml Miltenyi buffer. The cell suspension was added to the magnetic column, washed with 10 ml Miltenyi buffer in the column. CD19^+ cells are released by 1 ml Miltenyi Buffer without magnetic field. CD19^+ cells were washed twice with RPMI complete medium. B cells (2×10^5) were plated in 96 well plate.
B cells were treated with 1,3-dioxo-(2,6-dioxopiperidin-3-yl)-4-aminoisoindoline (FIG. 6) in presence of anti IgM, anti CD40 and IL-4 for 3 days. The images were captured using phase contrast microscopy with MetaMorph software.
Morphological changes also support IMiDs' costimulation of B cells to drive their proliferation. […]

CD80 = test: FACS analysis of CD80 expression on B cells; conditions: normal B cells, 1 μM
Experimental: as §1
B cells were treated with 1 μM 1,3-dioxo-(2,6-dioxopiperidin-3-yl)-4-aminoisoindoline in presence of LPS; CD40 ligand and IL-4; or BAFF for 3 days. The suspension of B cells was washed by PBS once, and incubated with FITC conjugated anti human CD40, PE conjugated anti human CD80, or PerCP-Cy5.5 conjugated anti human HLA-DR for 30 min in the dark. […]

CD40 = test: FACS analysis of CD40 expression on B cells
Experimental: as §1, with “plate. […]” for “plate.”
In addition to the suppression of IL-4 induced proliferation, CD40+IL-4 induced HLA-DR expression was also examined. B cells were treated by 1,3-dioxo-(2,6-dioxopiperidin-3-yl)-4-aminoisoindoline with CD40L+IL-4 for 72 hours, and the cell surface expression markers CD40 and HLA-DR were measured by FACS. […]

TLR 9 = TLR 9 expression by FACS array in B cells; conditions: 0.0006-60 μM, in combination with other stimuli, particularly IgM, 3 days (FIGS. 8A-8D)
Experimental: as §1
B cells were plated in 96 well plate and treated with 1,3-dioxo-(2,6-dioxopiperidin-3-yl)-4-aminoisoindoline at concentrations of 60 μM, 6 μM, 0.6 μM, 0.06 μM, 0.006 μM and 0.0006 μM in presence of stimuli for 3 days. […] B cells were resuspended in 150 μl PBS containing 1% BSA and read in FACS array instrument (BD Bioscience).

IL-6 = test: Measurement of cytokine IL-6 by Luminex in B cells
Experimental: as §1
B cells were treated with 1,3-dioxo-(2,6-dioxopiperidin-3-yl)-4-aminoisoindoline at 60 μM, 6 μM, 0.6 μM, 0.06 μM, 0.006 μM and 0.0006 μM in presence of anti IgM, anti CD40 and IL-4 for 3 days. Supernatant (25 μl) was collected and incubated with 25 μl anti IL-6 beads for about 1 hour. […] The plate was read on Bio-Plex instrument (Bio-Rad).

Nc1cccc2c1C(=O)N(C1CCC(=O)NC1=O)C2=O (stereo not drawn) [1,3-dioxo-(2,6-dioxopiperidin-3-yl)-4-aminoisoindoline]
phosphorylation of STAT6 (Tyr 641) (STAT6): block phosphorylation of STAT6 | morphological changes of B cells (B cells): formed large aggregates | number of B cells expressing CD80 (CD80; CD40 ligand and IL-4, 3 days (FIG. 1B)): increased | CD80 expression (CD80; in the presence of CD40 ligand and IL-4, 3 days (FIG. 1A)): increased | increase of CD40 expression (CD40; B cells treated with BAFF (FIG. 11F)): 60% | CD40 expression (CD40; B cells treated with BAFF or LPS, 1 μM, 3 days (FIG. 2A)): upregulated | TLR 9 expression (TLR 9): increase | IL-6 expression (IL-6; compound alone (FIG. 5A)): did not enhance | IL-6 expression (IL-6; in combination with anti IgM, anti CD40 and IL-4, 3 days, 0.0006-60 μM (FIG. 5B)): enhanced
